Source: PubChem BioAssay (NCI)
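Dose response: 5 concentrations. Exposure: 48 h. Format: 96-well plates. Endpoint: linear interpolation; highest concentration if not reached. Here, GI50 denotes the concentration required for 50% inhibition of growth. TGI: concentration producing complete growth inhibition.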

What was measured:
Experiment in all cases: inhibition of tumour cell growth, NCI panel, 48 h
[1] = test system: 786-0 renal
[2] = test system: A498 renal
[3] = test system: A549 NSCLC
[4] = test system: ACHN renal
[5] = test system: BT-549 breast
[6] = test system: CAKI-1 renal
[7] = test system: CCRF-CEM leukemia
[8] = test system: COLO 205 colon
[9] = test system: DU-145 prostate
[10] = test system: EKVX NSCLC
[11] = test system: HCC-2998 colon
[12] = test system: HCT-116 colon
[13] = test system: HCT-15 colon
[14] = test system: HL-60(TB) leukemia
[15] = test system: HOP-62 NSCLC
[16] = test system: HOP-92 NSCLC
[17] = test system: HS 578T breast
[18] = test system: HT29 colon
[19] = test system: IGROV1 ovarian
[20] = test system: K-562 leukemia
[21] = test system: KM12 colon
[22] = test system: LOX IMVI melanoma
[23] = test system: M14 melanoma
[24] = test system: MALME-3M melanoma
[25] = test system: MCF7 breast
[26] = test system: MDA-MB-231 breast
[27] = test system: MDA-MB-435
[28] = test system: MOLT-4 leukemia
[29] = test system: NCI-H226 lung

Structure (SMILES): Oc1c(Cl)cc(Cl)c2cccnc12
- GI50 [1]: 3.29 µM
- TGI [1]: 11.8 µM
- GI50 [2]: 2.92 µM
- TGI [2]: 12.1 µM
- GI50 [3]: 3.49 µM
- TGI [3]: 29.6 µM
- GI50 [4]: 3.78 µM
- TGI [4]: 40.5 µM
- GI50 [5]: 4.12 µM
- TGI [5]: 52.7 µM
- GI50 [6]: 2.71 µM
- TGI [6]: 19 µM
- GI50 [7]: 2.75 µM
- TGI [7]: > 100 µM
- GI50 [8]: 3.43 µM
- TGI [8]: 13.4 µM
- GI50 [9]: 4.51 µM
- TGI [9]: 45.7 µM
- GI50 [10]: 2.9 µM
- TGI [10]: 15.2 µM
- GI50 [11]: 10.1 µM
- TGI [11]: 26 µM
- GI50 [12]: 2.97 µM
- TGI [12]: 10.1 µM
- GI50 [13]: 4.73 µM
- TGI [13]: 25.9 µM
- GI50 [14]: 2.87 µM
- TGI [14]: 6.65 µM
- GI50 [15]: 2.24 µM
- TGI [15]: 21.1 µM
- GI50 [16]: 2.8 µM
- TGI [16]: 26.3 µM
- GI50 [17]: 6.88 µM
- TGI [17]: > 100 µM
- GI50 [18]: 4.99 µM
- TGI [18]: 18 µM
- GI50 [19]: 3.72 µM
- TGI [19]: 18.8 µM
- GI50 [20]: 3.77 µM
- TGI [20]: > 100 µM
- GI50 [21]: 4.58 µM
- TGI [21]: 16.7 µM
- GI50 [22]: 2.18 µM
- TGI [22]: 15.7 µM
- GI50 [23]: 1.96 µM
- TGI [23]: 5.26 µM
- GI50 [24]: 2.78 µM
- TGI [24]: 13.1 µM
- GI50 [25]: 3.75 µM
- TGI [25]: 13.8 µM
- GI50 [26]: 3.04 µM
- TGI [26]: 18.3 µM
- GI50 [27]: 3.84 µM
- TGI [27]: > 100 µM
- GI50 [28]: 3.41 µM
- TGI [28]: 17.8 µM
- GI50 [29]: 3.15 µM
- TGI [29]: 14.7 µM
